Source: US4522813A, “Cyclic hexapeptide somatostatin analogs” (Merck & Co., Inc., priority 1983, dated 1985)

How the values were obtained:
[1] = system: growth hormone release from rat pituitary cells; experiment: In vitro inhibition of growth hormone release, cultured rat pituitary cells; assay type: cell-based; details: multiple or fraction of the effect of somatostatin (=1), fiducial limits in parentheses, 4 hours incubation
Description: The instant cyclic hexapeptide analogs of somatostatin are tested and compared with the effects of somatostatin in an in vitro test for the inhibition of growth hormone. The test is described as follows:
"Rat pituitaries were isolated according to the procedures of Vale and Grant "In vitro Pituitary Hormone Secretion Assay for Hypophysiotropic Substances" in Methods in Enzymology, Vol. XXXVII, eds. O'Malley, B. W. and Hardman, J. G. (Academic Press, Inc., New York) pp. 5-93 (1975).
After 4 days in culture, the cells were washed and incubated for 4 hours in Dulbecco-modified Eagle's medium in the presence or absence of graded doses of each analog or somatostatin. The medium was then collected for subsequent growth hormone determination by a double antibody radioimmunoassay for rat growth hormone."

portal vein insulin = experiment: Decrease of portal vein insulin levels in anesthetized rats; assay type: in vivo, rat; details: multiple or fraction of the effect of somatostatin (=1), fiducial limits in parentheses, external jugular vein, portal vein blood after 5 minutes
Description: (§1) Analogs of somatostatin were compared to somatostatin in their ability to decrease the levels of portal vein glucagon and insulin in anesthetized rats. Male Sprague-Dawley rats (Charles River CD) weighing 160-200 g were anesthetized with urethane (150 mg/100 g of body weight; Aldrich). Saline or peptides were administered via the external jugular vein. After 5 minutes, the portal vein was exposed, and blood was collected via syringe containing 3 mg of EDTA and placed in chilled tubes containing 100 μl of Trasylol (FBA Pharmaceuticals) for subsequent hormone analysis. Plasma levels of glucagon were determined by the method of Faloona and Unger, Methods of Hormone Radioimmunoassay, Jaffe and Behrman (Eds), Academic Press, New York, Vol, II, pp. 257-527 (1976), utilizing glucagon antisera 30K obtained from R. Unger (Dallas, TX). Plasma levels of insulin were determined by a modification of the procedure of Herbert et al., J. Clin. Endocrinol. Metab., 25, 1375-1384 (1965).

portal vein glucagon = experiment: Decrease of portal vein glucagon levels in anesthetized rats; assay type: in vivo, rat; details: multiple or fraction of the effect of somatostatin (=1), fiducial limits in parentheses, external jugular vein, portal vein blood after 5 minutes
Description: as §1

[2] = system: pentagastrin evoked gastric secretion; experiment: Inhibition of pentagastrin evoked gastric secretion in the chronic fistula dog; assay type: in vivo; set-up: dose or concentration left out as unconfirmed; details: infusion 0-60 min., relative to placebo trial; for Gastric Secretion & Inhibition, Acid Concentration 0-30 / Gastric Secretion & Inhibition, Vol. 0-30: interval 0-30 min; for Gastric Secretion & Inhibition, Acid Concentration 30-60 / Gastric Secretion & Inhibition, Vol. 30-60: interval 30-60 min; for Gastric Secretion & Inhibition, Acid Concentration 60-90 / Gastric Secretion & Inhibition, Vol. 60-90: interval 60-90 min; for Gastric Secretion & Inhibition, Acid Concentration 90-120 / Gastric Secretion & Inhibition, Vol. 90-120: interval 90-120 min
Description: The gastric effects of the instant cyclichexapeptide analogs of somatostatin are determined by the following procedure.
Compounds were tested for their ability to inhibit pentagastrin evoked gastric secretion in the chronic fistula dog. Female beagle dogs with a chronic gastric fistula were given pentagastrin (2.5 μg./kg./hour, i.v. from -60 to 120 min.) and gastric outputs were collected via the fistula cannula. Samples were analyzed at 30 minute intervals for volume (Ml.) and titratable acid (mEq/L) (Titration to pH 7 with 0.01N NaOH); total acid output (mEq) was calculated as the production of output volume and acid concentration. Test compounds were infused at a constant rate from 0 to 60 minutes. Data have been expressed as percent change of total acid output relative to a placebo trial in the same animals.

Row | Compound | Growth Hormone Release Inhibition [1] | Insulin Inhibition (portal vein insulin) | Glucagon Inhibition (portal vein glucagon) | Gastric Secretion & Inhibition, Acid Concentration 0-30 [2] | Gastric Secretion & Inhibition, Vol. 0-30 [2] | Gastric Secretion & Inhibition, Acid Concentration 30-60 [2] | Gastric Secretion & Inhibition, Vol. 30-60 [2] | Gastric Secretion & Inhibition, Acid Concentration 60-90 [2] | Gastric Secretion & Inhibition, Vol. 60-90 [2] | Gastric Secretion & Inhibition, Acid Concentration 90-120 [2] | Gastric Secretion & Inhibition, Vol. 90-120 [2]
1 | Cyclo--(Pro--Phe--D-Trp--cis-AChxAla--Thr--Phe) | 0.5 (0.3, 0.6) | 1.4 (0.7, 2.7) | 2.2 (1.1, 4.7) | 4% | 75% | 19% | 82% | 13% | 20% | 5% | 2%
2 | C[C@H](N)C(=O)NCC(=O)N[C@H]1CSSC[C@@H](C(=O)O)NC(=O)[C@H](CO)NC(=O)[C@H]([C@@H](C)O)NC(=O)[C@H](Cc2ccccc2)NC(=O)[C@H]([C@@H](C)O)NC(=O)[C@H](CCCCN)NC(=O)[C@H](Cc2c[nH]c3ccccc23)NC(=O)[C@H](Cc2ccccc2)NC(=O)[C@H](Cc2ccccc2)NC(=O)[C@H](CC(N)=O)NC(=O)[C@H](CCCCN)NC1=O [Somatostatin] |  |  | 1 | 16% | 85% | 77% | 97% | 61% | 81% | 14% | 37%
3 | Cyclo--(Pro--Phe--D-Trp--t-D-AChxGly--Thr--Phe) | 0.11 | 0.07 | 0.07 |  |  |  |  |  |  |  | 
